Laboratory results as given in patent US8153641B2, “Compounds and methods for kinase modulation, and indications therefor” (Plexxikon Inc., priority 2008, dated 2012).

Experiments:
Format in all cases: biochemical
[1] = target: C-Raf (Homo sapiens, UniProt P04049); assay: Kinase activity assay, C-Raf; details: read-out: activity toward kinase C-Raf, IC50
[2] = target: Fms (Homo sapiens, UniProt P07333); assay: Kinase activity assay, Fms; details: read-out: activity toward kinase Fms, IC50
[3] = target: B-Raf V600E (Homo sapiens, UniProt P15056, V600E); assay: Kinase activity assay, B-Raf V600E; details: read-out: activity toward kinase B-Raf V600E, IC50
[4] = target: B-Raf (Homo sapiens, UniProt P15056); assay: Kinase activity assay, B-Raf; details: read-out: activity toward kinase B-Raf, IC50

Measured: IC50

Sequence of C-Raf (P04049 whole entry): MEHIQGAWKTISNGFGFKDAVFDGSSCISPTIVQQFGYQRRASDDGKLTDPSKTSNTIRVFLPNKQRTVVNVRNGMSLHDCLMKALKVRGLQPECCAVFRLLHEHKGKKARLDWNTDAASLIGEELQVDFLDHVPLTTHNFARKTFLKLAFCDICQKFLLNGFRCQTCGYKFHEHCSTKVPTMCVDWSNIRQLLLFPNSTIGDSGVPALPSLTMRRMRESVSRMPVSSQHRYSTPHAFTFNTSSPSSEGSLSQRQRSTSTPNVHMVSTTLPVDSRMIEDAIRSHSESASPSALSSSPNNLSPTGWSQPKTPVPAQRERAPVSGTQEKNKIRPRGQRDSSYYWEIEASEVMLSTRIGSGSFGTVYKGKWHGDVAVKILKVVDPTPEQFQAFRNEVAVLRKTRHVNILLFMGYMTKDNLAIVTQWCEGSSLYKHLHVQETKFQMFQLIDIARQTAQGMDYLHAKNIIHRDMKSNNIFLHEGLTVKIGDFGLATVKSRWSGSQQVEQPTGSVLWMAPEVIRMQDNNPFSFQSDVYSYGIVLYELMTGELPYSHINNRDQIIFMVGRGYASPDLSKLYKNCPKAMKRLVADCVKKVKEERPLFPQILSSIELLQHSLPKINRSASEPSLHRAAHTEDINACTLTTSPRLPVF
Sequence of Fms (P07333 20-972): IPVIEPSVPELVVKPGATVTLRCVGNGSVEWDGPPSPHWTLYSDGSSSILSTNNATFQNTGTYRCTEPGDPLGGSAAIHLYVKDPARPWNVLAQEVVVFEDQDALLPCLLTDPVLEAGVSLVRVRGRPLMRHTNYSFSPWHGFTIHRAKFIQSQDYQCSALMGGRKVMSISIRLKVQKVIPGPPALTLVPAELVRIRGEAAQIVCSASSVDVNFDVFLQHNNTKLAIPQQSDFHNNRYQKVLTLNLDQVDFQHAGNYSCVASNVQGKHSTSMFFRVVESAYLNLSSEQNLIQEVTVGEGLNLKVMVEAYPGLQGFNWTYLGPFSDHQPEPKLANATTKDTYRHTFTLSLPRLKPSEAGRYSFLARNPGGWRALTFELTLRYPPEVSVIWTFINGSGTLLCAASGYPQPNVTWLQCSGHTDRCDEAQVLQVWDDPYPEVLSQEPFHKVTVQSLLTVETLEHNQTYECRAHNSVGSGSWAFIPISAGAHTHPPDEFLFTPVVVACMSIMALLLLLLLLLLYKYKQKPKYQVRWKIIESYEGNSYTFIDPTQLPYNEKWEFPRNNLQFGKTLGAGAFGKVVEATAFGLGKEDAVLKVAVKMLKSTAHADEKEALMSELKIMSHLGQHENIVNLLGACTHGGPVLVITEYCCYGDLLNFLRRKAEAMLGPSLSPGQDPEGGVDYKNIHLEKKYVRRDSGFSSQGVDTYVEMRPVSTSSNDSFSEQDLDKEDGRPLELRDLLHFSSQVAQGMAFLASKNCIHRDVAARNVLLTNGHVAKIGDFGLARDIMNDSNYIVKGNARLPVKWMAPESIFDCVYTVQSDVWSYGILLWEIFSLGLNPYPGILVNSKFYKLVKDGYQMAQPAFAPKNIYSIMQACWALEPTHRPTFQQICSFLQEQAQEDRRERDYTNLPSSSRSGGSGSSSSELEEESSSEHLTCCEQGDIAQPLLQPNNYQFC
Sequence of B-Raf (P15056 whole entry): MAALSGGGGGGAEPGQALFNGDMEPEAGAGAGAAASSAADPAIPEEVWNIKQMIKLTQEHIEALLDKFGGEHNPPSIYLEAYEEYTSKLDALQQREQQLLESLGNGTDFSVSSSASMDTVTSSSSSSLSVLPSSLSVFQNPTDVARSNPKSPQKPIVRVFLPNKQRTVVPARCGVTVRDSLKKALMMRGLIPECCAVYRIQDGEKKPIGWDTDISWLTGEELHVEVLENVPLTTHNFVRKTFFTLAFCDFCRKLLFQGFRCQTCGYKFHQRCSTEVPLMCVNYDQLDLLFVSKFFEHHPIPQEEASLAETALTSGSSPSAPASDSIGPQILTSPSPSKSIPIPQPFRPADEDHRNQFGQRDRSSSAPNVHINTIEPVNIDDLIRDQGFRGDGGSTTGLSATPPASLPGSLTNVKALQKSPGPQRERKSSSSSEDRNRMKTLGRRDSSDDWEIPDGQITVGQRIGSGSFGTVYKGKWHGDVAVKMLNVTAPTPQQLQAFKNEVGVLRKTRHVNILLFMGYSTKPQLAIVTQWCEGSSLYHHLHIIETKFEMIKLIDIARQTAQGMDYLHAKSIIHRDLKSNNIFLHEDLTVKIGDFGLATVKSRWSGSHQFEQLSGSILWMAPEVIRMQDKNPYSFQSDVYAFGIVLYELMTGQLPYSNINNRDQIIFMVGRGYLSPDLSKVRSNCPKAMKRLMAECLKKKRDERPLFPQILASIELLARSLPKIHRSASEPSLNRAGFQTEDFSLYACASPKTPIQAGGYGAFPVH
Sequence of B-Raf V600E (P15056 whole entry V600E): as the sequence (P15056 whole entry) above, with V600E counted along it

O=C(c1c(F)ccc(NS(=O)(=O)c2cccnc2)c1F)c1c[nH]c2ncncc12 [Compound P-0066, Pyridine-3-sulfonic acid [2,4-difluoro-3-(7H-pyrrolo[2,3-d]pyrimidine-5-carbonyl)-phenyl]-amide]
≤ 10 µM: all assays above
